Laboratory results reported in patent US10906889B2, “Polycyclic inhibitors of cyclin-dependent kinase 7 (CDK7)” (Dana-Farber Cancer Institute, Inc., priority 2013, dated 2021).
Where two headings read alike, the source gives them in different places.

What was measured:
[1] = system: Jurkat cells; assay: Cell proliferation (CellTiter-Glo, 72 hour), Jurkat; format: cell-based; conditions: Homo sapiens, blood cancer cell line
[2] = target: T1, MLK3 (Homo sapiens, UniProt Q16584); assay: LanthaScreen Eu kinase assay (Life Technologies), MLK3; format: binding; conditions: Table 2; read-out: MLK3 (calculated IC50)
T1 construct: purchased Life Technologies (assay service)

[3] = target: CDK5/p25 (Homo sapiens, UniProt Q00535); assay: Z'-Lyte kinase assay (Life Technologies), CDK5/p25
[4] = target: T2, CDK7 (Homo sapiens, UniProt P50613); assay: Adapta kinase assay (Life Technologies), CDK7; format: biochemical
T2 construct: purchased Life Technologies (assay service)

[5] = Table 1C, co-factors cyclin H and MNAT1, read-out: CDK7 IC50
[6] = Table 2, co-factors cyclin H and MNAT1, read-out: CDK7 (calculated IC50)

T2 sequence (P50613 whole entry): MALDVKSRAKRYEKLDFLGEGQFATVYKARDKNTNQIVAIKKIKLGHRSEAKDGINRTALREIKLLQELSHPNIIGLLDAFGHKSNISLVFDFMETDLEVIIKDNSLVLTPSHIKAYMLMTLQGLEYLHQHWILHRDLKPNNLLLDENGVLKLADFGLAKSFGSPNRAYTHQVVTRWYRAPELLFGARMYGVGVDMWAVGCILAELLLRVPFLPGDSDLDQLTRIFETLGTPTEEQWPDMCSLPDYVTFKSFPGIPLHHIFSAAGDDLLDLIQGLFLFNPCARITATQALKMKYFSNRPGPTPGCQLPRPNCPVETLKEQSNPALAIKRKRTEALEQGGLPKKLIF
T2 sequence (P51946 whole entry partner): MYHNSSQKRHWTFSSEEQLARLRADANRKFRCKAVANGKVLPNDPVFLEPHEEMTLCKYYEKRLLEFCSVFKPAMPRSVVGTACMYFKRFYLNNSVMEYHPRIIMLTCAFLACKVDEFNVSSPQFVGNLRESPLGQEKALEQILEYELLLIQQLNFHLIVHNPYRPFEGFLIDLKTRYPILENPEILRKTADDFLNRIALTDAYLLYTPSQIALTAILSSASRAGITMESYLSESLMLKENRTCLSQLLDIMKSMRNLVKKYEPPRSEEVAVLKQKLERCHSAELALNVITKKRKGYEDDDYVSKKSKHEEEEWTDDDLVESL
T2 sequence (P51948 whole entry partner): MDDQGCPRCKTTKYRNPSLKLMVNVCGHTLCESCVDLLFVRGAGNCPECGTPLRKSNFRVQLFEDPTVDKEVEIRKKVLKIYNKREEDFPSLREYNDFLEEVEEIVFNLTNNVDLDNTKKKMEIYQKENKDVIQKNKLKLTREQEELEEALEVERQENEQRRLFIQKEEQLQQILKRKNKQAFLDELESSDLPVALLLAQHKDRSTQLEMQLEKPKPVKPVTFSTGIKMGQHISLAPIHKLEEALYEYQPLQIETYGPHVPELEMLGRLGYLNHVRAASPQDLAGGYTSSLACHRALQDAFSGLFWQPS
T1 sequence (Q16584 whole entry): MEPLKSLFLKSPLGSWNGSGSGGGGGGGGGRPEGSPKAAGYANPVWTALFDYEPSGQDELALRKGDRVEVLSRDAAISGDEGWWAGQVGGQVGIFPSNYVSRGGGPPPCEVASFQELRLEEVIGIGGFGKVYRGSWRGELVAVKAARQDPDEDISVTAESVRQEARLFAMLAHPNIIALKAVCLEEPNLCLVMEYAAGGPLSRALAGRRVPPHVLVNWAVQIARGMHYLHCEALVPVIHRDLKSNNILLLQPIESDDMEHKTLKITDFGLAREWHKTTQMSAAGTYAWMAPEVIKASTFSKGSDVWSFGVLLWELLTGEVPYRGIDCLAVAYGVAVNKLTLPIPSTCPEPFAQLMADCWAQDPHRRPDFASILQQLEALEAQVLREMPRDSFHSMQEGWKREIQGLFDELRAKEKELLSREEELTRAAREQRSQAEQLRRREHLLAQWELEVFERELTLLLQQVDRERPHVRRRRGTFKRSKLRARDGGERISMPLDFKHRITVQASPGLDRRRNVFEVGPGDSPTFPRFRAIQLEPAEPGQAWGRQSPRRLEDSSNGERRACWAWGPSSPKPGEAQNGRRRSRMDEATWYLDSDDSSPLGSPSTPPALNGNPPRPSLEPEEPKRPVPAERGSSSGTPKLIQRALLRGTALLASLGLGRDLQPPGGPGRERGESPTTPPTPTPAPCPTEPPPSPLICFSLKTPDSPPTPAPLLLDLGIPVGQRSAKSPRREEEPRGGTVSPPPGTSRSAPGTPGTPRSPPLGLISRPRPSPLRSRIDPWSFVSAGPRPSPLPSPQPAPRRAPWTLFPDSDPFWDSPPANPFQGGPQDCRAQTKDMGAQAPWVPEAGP
Sequence of CDK5/p25 (Q00535 whole entry): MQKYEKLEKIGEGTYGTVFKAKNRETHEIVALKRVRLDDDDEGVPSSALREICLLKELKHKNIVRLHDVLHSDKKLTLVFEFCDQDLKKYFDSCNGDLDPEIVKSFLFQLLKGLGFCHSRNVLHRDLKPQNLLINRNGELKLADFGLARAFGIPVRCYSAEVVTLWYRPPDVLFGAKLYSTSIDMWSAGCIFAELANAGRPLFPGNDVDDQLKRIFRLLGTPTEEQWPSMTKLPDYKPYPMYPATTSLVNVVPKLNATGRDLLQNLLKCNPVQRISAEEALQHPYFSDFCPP
Sequence of CDK5/p25 (Q15078 99-307 partner limits assumed): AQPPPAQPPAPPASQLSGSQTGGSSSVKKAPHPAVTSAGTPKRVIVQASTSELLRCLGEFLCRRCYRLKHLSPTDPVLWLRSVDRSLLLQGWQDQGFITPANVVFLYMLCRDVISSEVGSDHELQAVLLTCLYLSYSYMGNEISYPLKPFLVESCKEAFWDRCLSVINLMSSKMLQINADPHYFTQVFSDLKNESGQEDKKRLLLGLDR

Row | IC50 [1] [nM] | IC50 [2] [nM] | IC50 [3] [nM] | IC50 [4, 5] [nM] | IC50 [4, 6] [nM] | Compound
1 | 500 to 5000 | > 1000 | > 1000 | 100 to 1000 | 100 to 1000 | CN(C)C/C=C/C(=O)Nc1ccc(C(=O)N[C@@H]2CCC[C@H](Nc3ncc(Cl)c(-c4c[nH]c5ccccc45)n3)C2)cc1 [compound 101]
2 | 500 to 5000 |  |  | 100 to 1000 |  | CC(C)=CC(=O)Nc1ccc(C(=O)N[C@H]2CCC[C@@H](Nc3ncc(Cl)c(-c4c[nH]c5ccccc45)n3)C2)cc1 [Compound 118, N-((1S,3R)-3-(5-chloro-4-(1H-indol-3-yl)pyrimidin-2-ylamino)cyclohexyl)-4-(3-methylbut-2-enamido)benzamide]
3 | 500 to 5000 |  |  | 100 to 1000 |  | C=CC(=O)Nc1ccc(C(=O)N[C@H]2CCC[C@@H](Nc3ncc(C4CC4)c(-c4c[nH]c5ccccc45)n3)C2)cc1 [Compound 146]
4 | < 500 |  |  | < 100 |  | CN(C)C/C=C/C(=O)Nc1ccc(C(=O)NC2CCCC(Nc3ncc(Cl)c(-c4c[nH]c5ccccc45)n3)C2)c(F)c1 (stereo not shown) [compound 125]
5 | < 500 |  |  | < 100 |  | CN(C)C/C=C/C(=O)Nc1ccc(C(=O)N[C@H]2CCC[C@@H](Nc3ncc(Cl)c(-c4c[nH]c5ccccc45)n3)C2)cc1F [Compound 126, N-((1S,3R)-3-(5-chloro-4-(1H-indol-3-yl)pyrimidin-2-ylamino)cyclohexyl)-4-((E)-4-(dimethylamino)but-2-enamido)-3-fluorobenzamide]
6 | < 500 |  |  | < 100 |  | CN(C)C/C=C/C(=O)Nc1ccc(C(=O)NC2CC(Nc3ncc(Cl)c(-c4c[nH]c5ccccc45)n3)CC(F)(F)C2)cc1 (racemic) [Compound 122, (+/−)-N-(5-(5-chloro-4-(1H-indol-3-yl)pyrimidin-2-ylamino)-3,3-difluorocyclohexyl)-4-((E)-4-(dimethylamino)but-2-enamido)benzamide]
7 | < 500 |  |  | < 100 |  | O=C(/C=C/CN1CCOCC1)Nc1ccc(C(=O)N[C@H]2CCC[C@@H](Nc3ncc(Cl)c(-c4c[nH]c5ccccc45)n3)C2)cc1 [Compound 110, N-((1S,3R)-3-(5-chloro-4-(1H-indol-3-yl)pyrimidin-2-ylamino)cyclohexyl)-4-((E)-4-morpholinobut-2-enamido)benzamide]
8 | < 500 |  |  | < 100 |  | CN1CCN(C/C=C/C(=O)Nc2ccc(C(=O)N[C@H]3CCC[C@@H](Nc4ncc(Cl)c(-c5c[nH]c6ccccc56)n4)C3)cc2)CC1 [Compound 111, N-((1S,3R)-3-(5-chloro-4-(1H-indol-3-yl)pyrimidin-2-ylamino)cyclohexyl)-4-((E)-4-(4-methylpiperazin-1-yl)but-2-enamido)benzamide]
9 | < 500 | > 1000 | > 1000 | < 100 | < 100 | CN(C)C/C=C/C(=O)Nc1ccc(C(=O)N[C@@H]2CCC[C@@H](Nc3ncc(Cl)c(-c4c[nH]c5ccccc45)n3)C2)cc1 [compound 104]
10 | 500 to 5000 |  |  | 100 to 1000 |  | CN(C)C/C=C/C(=O)Nc1ccc(C(=O)NC23CC4CC(C2)CC(Nc2ncc(Cl)c(-c5c[nH]c6ccccc56)n2)(C4)C3)cc1 [Compound 108, (E)-N-(3-(5-chloro-4-(1H-indol-3-yl)pyrimidin-2-ylamino)tricyclo[3.3.1.1^3,7]decanyl)-4-(4-(dimethylamino)but-2-enamido)benzamide]
11 | < 500 |  |  | < 100 |  | C=CC(=O)Nc1ccc(C(=O)N[C@H]2CCC[C@@H](Nc3ncc(Cl)c(-c4cnn5ccccc45)n3)C2)cc1 [Compound 138, 4-acrylamido-N-((1S,3R)-3-(5-chloro-4-(pyrazolo[1,5-a]pyridin-3-yl)pyrimidin-2-ylamino)cyclohexyl)benzamide]
12 | < 500 |  |  | < 100 |  | CN(C)C/C=C/C(=O)Nc1ccc(NC(=O)[C@H]2CCC[C@@H](Nc3ncc(Cl)c(-c4c[nH]c5ccccc45)n3)C2)cc1 [Compound 114, (1S,3R,E)-3-(5-chloro-4-(1H-indol-3-yl)pyrimidin-2-ylamino)-N-(4-(4-(dimethylamino)but-2-enamido)phenyl)cyclohexanecarboxamide]
13 | < 500 |  |  | < 100 |  | CN(C)C/C=C/C(=O)Nc1ccc(C(=O)NC2(C)CCCC(Nc3ncc(Cl)c(-c4c[nH]c5ccccc45)n3)C2)cc1 (stereo not shown) [compound 128]
14 | < 500 |  |  | 100 to 1000 |  | C=CC(=O)Nc1ccc(C(=O)N[C@H]2CCC[C@@H](Nc3ncc(F)c(-c4c[nH]c5ccccc45)n3)C2)cc1 [Compound 137, 4-acrylamido-N-((1S,3R)-3-(5-fluoro-4-(1H-indol-3-yl)pyrimidin-2-ylamino)cyclohexyl)benzamide]
15 | < 500 |  |  | 100 to 1000 |  | C=CC(=O)Nc1ccc(C(=O)NC2CCCC(Nc3ncc(Cl)c(-c4sc(C)nc4C)n3)C2)cc1 (stereo not shown) [Compound 142]
16 | < 500 |  |  | < 100 |  | O=C(/C=C/CO)Nc1ccc(C(=O)N[C@H]2CCC[C@@H](Nc3ncc(Cl)c(-c4c[nH]c5ccccc45)n3)C2)cc1 [Compound 124, N-((1S,3R)-3-(5-chloro-4-(1H-indol-3-yl)pyrimidin-2-ylamino)cyclohexyl)-4-((E)-4-hydroxybut-2-enamido)benzamide]
17 | < 500 |  |  | < 100 |  | C[Si](C)(C)C#CC(=O)Nc1ccc(C(=O)NC23CCCC(Nc4ncc(Cl)c(-c5c[nH]c6ccccc56)n4)(C2)C3)cc1 [Compound 130, N-(5-(5-chloro-4-(1H-indol-3-yl)pyrimidin-2-ylamino)bicyclo[3.1.1]heptan-1-yl)-4-(3-(trimethylsilyl)propiolamido)benzamide]
